{"source": "patent US20110059869A1", "about": "“Method for Increasing Enzymatic Reactivity” (RIKEN, priority 2008, published 2011)", "type_in_all_cases": "biochemical", "key": {"[1]": {"test_system": "restriction enzyme BceAI", "assay": "BceAI cleavage of biotin-labeled 300 bp DNA fragments adsorbed to streptavidin beads", "method": "Biotin-labeled 300 by DNA fragments adsorbed (bound) to streptavidin beads were reacted with the restriction enzyme BceAI and the final concentration of the trehalose that was added to the system was examined as follows.\nPCR was conducted with biotin-labeled primers (Seq. ID Nos. 1 and 2) on 300 by DNA fragments using pFLCIII vector as template. The fragments were cleaved at the type II restriction enzyme site BceAI, releasing 50 by DNA fragments that were detected. Paramagnetic streptavidin beads were washed with accessory 1× binding buffer, recovered with a magnetic stand to remove the supernatant, and then suspended in the same buffer. Equal volumes of the PCR product-containing solution and 2× binding buffer were mixed, the bead solution was added, and the mixture was gently stirred with top to bottom inversion and rotation for 15 minutes at room temperature to induce adsorption. The magnetic stand was used to recover the sample adsorption beads, which were washed three times with 1× binding buffer. They were then washed once with 1× BceAI buffer. […] The reaction solutions were added to washed beads, mixed, and reacted for 3 hours at 37° C. The beads were recovered with the magnetic stand and cleaved with restriction enzyme. The supernatant containing the cDNA that had been released was reacted with proteinase K, treated with phenol chloroform, and precipitated from ethanol. […]"}, "[2]": {"test_system": "DNA polymerase", "assay": "Solexa sequencing system, cluster amplification reaction on DNA-immobilized chip", "details": "for num of CAGE tag / num of sequence read: trehalose 0.6 M in cluster amplification", "method": "The Solexa sequencing system incorporates the steps of adsorbing, immobilizing, and amplifying a DNA template on a flat chip. An examination was conducted to see how the sequence analysis level would change due to the addition of trehalose in the template amplification reaction of the Solexa sequencing system.\nIn the process of the Solexa sequencing system, attention was focused on the cluster amplification reaction conducted on a DNA-immobilized chip. In this reaction, DNA immobilized on the chip was amplified with DNA polymerase to obtain identical fragments referred to as a cluster (Scheme 9). Amplification was conducted by adding trehalose to the reaction solution to a final concentration of 0.6 M, and a comparison was made with the results obtained when no trehalose was added (FIG. 10). The sample employed here was a 27 by DNA fragment that had been prepared by the CAGE method (obtained by cleaving just 27 by off of the 5′ end of cDNA).\nIn the same manner as in 10 above, trehalose was added to a final concentration of 0.3 M to a reaction solution and amplification was conducted in a Solexa sequencing system. The results were compared to those obtained when no trehalose was added. The samples employed, prepared by the CAGE method (obtained by cleaving just 27 by off the 5′ end of the cDNA), were different 27 by DNA fragments than those in 10 above."}, "[3]": {"test_system": "DNA polymerase", "assay": "454 sequencing system, emulsion PCR on beads", "method": "In the 454 sequencing system (Scheme 10), a DNA template was adsorbed onto spherical beads, immobilized, and subjected to enveloped amplification in a water-in-oil emulsion (emulsion PCR). Accordingly, the change in the sequencing analysis level when trehalose was added in emulsion PCR was examined.\nIn emulsion PCR, DNA is bonded by complementarily interaction with oligoprimer immobilized on beads and enveloped in a water-in-oil emulsion to form microreactors each comprised of a single bead and a single DNA fragment. An amplification reaction based on the DNA polymerase results in the amplification of each DNA fragment into several million copies per bead. Trehalose was added to a final concentration of 0.6 M to the reaction solution and the amplification reaction was conducted to examine the effect on the sequence analysis results (Scheme 11).\nThe samples employed were DNA fragments that had been obtained by PCR amplification of cDNA obtained by reverse transcription of short RNA (FIG. 11). The results obtained by this reaction are shown in FIGS. 12, 13, and 14, as well as in Table 2.\nIn the 454 sequencing system described in 11 above, trehalose was added to a final concentration of […] to the reaction solution, an amplification reaction was conducted, and the effect on the level of sequencing was examined."}, "[4]": {"test_system": "sequencing enzyme reaction solution of a Genome Sequencer FLX system", "assay": "Sequencing reaction of the 454 sequencing system (Genome Sequencer FLX)", "details": "trehalose 0.15 M and 0.3 M in sequencing reaction vs none", "method": "In the 454 sequencing system described in 11 above, trehalose was added to the reaction solution to a final concentration of 0.3 M, the sequencing reaction was conducted, and the effect on the sequencing level was observed.\nD(+)-trehalose was added to the sequencing enzyme reaction solution of a Genome Sequencer FLX system and the effects were measured. Two experiments were conducted with final D(+)-trehalose concentrations of 0.15 M and 0.3 M. The ratio of the read length to the decodable sample was employed for comparison.\nThe D(+)-trehalose employed was D(+)-trehalose dihydrate (201-02253 reagent grade) (Wako). A GS LR 25 Sequencing Kit (502906) was employed for sequencing with the Genome Sequencer FLX system. The samples employed here were a PolyA minus full length cDNA library prepared in-house and human genome prepared according to the manufacturer's protocol.\nThe D(+)-trehalose dihydrate (201-02253 reagent grade) (Wako) was added in the following proportion to the Buffer CB among the reagents contained in the GS LR 25 Sequencing Kit (502906).\nThe mixture was stirred with a magnetic stirrer. Once dissolution had been visually confirmed, the mixed solution was passed through a filter (filter pore system 0.22 micrometer). Following filtration, precisely the required 2× 1000 mL quantities were collected from the mixed solution. […]"}, "[5]": {"details": "0.3 M trehalose in cluster amplification vs none"}, "[6]": {"details": "0.3 M trehalose in emulsion PCR vs none"}, "[7]": {"details": "0.6 M trehalose in emulsion PCR"}, "[8]": {"details": "trehalose 0.6 M in emulsion PCR, Region 2"}}, "data": [{"smiles": "OC[C@H]1O[C@H](O[C@H]2O[C@H](CO)[C@@H](O)[C@H](O)[C@H]2O)[C@H](O)[C@@H](O)[C@@H]1O", "note": "[trehalose, D(+)-trehalose]", "values": [{"measurement": "change in yield of 50 by fragments with trehalose concentration", "setting": "[1]; 0 M, 0.3 M, 0.6 M, and 0.8 M trehalose", "value": "No change was observed beyond 0.6 M"}, {"measurement": "yield of 50 by fragments released by cleavage", "setting": "[1]; trehalose added vs not added, beads, 3 hours at 37° C.", "value": "increased"}, {"measurement": "fluorescence intensity of each base in the CAGE samples", "setting": "[2]; [5]", "value": "higher level of fluorescence intensity"}, {"measurement": "sequence level", "setting": "[2]; [5]", "value": "increased"}, {"measurement": "length of the sequence that was determined", "setting": "[2]; 0.6 M trehalose vs none", "value": "increased"}, {"measurement": "regions prepared by the CAGE method (CAGE tag) among DNA fragments analyzed", "setting": "[2]; 0.6 M trehalose vs none", "value": "more regions prepared by the CAGE method (the CAGE tag) were contained"}, {"measurement": "fluorescence intensity of each base", "setting": "[2]; 0.6 M trehalose, data not shown", "value": "strongly displayed"}, {"measurement": "num of CAGE tag", "setting": "[2]; region s1", "value": 196840}, {"measurement": "num of sequence read", "setting": "[2]; region s1", "value": 252820}, {"measurement": "num of CAGE tag", "setting": "[2]; region s2", "value": 421412}, {"measurement": "num of sequence read", "setting": "[2]; region s2", "value": 523387}, {"measurement": "num of CAGE tag", "setting": "[2]; region s3", "value": 540268}, {"measurement": "num of sequence read", "setting": "[2]; region s3", "value": 648786}, {"measurement": "num of CAGE tag", "setting": "[2]; region s5", "value": 317440}, {"measurement": "num of sequence read", "setting": "[2]; region s5", "value": 392534}, {"measurement": "num of CAGE tag", "setting": "[2]; region s6", "value": 627739}, {"measurement": "num of sequence read", "setting": "[2]; region s6", "value": 728614}, {"measurement": "num of CAGE tag", "setting": "[2]; region s7", "value": 798438}, {"measurement": "num of sequence read", "setting": "[2]; region s7", "value": 904101}, {"measurement": "num of CAGE tag", "setting": "[2]; total of regions", "value": 2902137}, {"measurement": "num of sequence read", "setting": "[2]; total of regions", "value": 3450242}, {"measurement": "long fragments (sequence length)", "setting": "[3]; [6]", "value": "increase in long fragments"}, {"measurement": "number of sequences", "setting": "[3]; [6]", "value": "increased the number of sequences"}, {"measurement": "short fragments (sequence length)", "setting": "[3]; [6]", "value": "reduction in short fragments"}, {"measurement": "DNA amplification wells", "setting": "[3]; 0.6 M trehalose (+) compared to trehalose (−)", "value": "increasing the DNA amplification wells"}, {"measurement": "number of sequences and size of the regions that were decoded", "setting": "[3]; 0.6 M trehalose (+) relative to trehalose (−)", "value": "increasing the number of sequences and the size of the regions that were decoded"}, {"measurement": "number of sequences read in sample DNA, increase relative to no trehalose", "setting": "[3]; [7]", "value": "about 1.6 fold"}, {"measurement": "target regions contained in DNA fragments (tags) analyzed", "setting": "[3]; [7]", "value": "more target regions were contained"}, {"measurement": "Keypass Wells", "setting": "[3]; [8]", "value": "341,546"}, {"measurement": "Passed Filter Wells", "setting": "[3]; [8]", "value": "207,398"}, {"measurement": "Raw Wells", "setting": "[3]; [8]", "value": "364,898"}, {"measurement": "number of sequences", "setting": "[4]", "value": "increased the number of sequences"}]}]}
